According to US20120035125A1, “FULVIC ACID IN COMBINATION WITH FLUCONAZOLE OR AMPHOTERICIN B FOR THE TREATMENT OF FUNGAL INFECTIONS” (Natracine UK Limited, priority 2009, published 2012):
Values after ≈ are worked out from the molar mass of the structure shown.

How the values were obtained:
Aspergillus = conditions: stated to be toxic to the subject; cited from earlier work
Absidia corymbifera = test: In vitro susceptibility (MIC, broth microdilution), CHD-FA and amphotericin B; assay type: cell-based; conditions: Lichtheimia corymbifera
Description: (§1) Each culture was grown on Sabouraud agar at 37° C. for 10 days to ensure purity and to allow spores to mature
(§2) RPMI-1640 (Sigma, Dorset, UK) supplemented to 2% glucose (Sigma), buffered with morpholinopropanesulfonic acid (MOPS), (Sigma) and adjusted to pH 7.0 was used as recommended in the Clinical Laboratory Standards M38A document (Reference method for broth dilution antifungal susceptibility testing of conidium-forming filamentous fungi. Approved standard. Document M38-A 2002a. NCCLS, Wayne, Pa. 2002. NCCLS, Wayne, Pa., USA).
(§3) a) All fungi were cultured in ambient air at 35-37° C. on recovery medium (Sabouraud dextrose agar) for 8-10 days before testing.
(§4) b) Inoculum suspensions were prepared from day 8 to 10 day cultures grown on Sabouraud dextrose agar at 37° C. in vented tissue culture flasks to avoid crosscontamination. Spores were harvested by flooding the surface of the growth with 25 ml of sterile phosphate buffered saline plus 0.05% Tween 80. The spore count was adjusted using a counting chamber.
(§5) c) The inoculum was completely suspended by vigorous shaking on a vortex mixer for 15 s. […] Drug-free and cell-free controls were included. (The RPMI medium used in the plates was prepared at either 2× or 4×the final strength to allow for dilution once the inoculum and diluted CHD-FA was added).
(§6) Sterile plastic, disposable, microtitration plates with 96 flat-bottom wells were used.
(§7) a) Column 1 of the microtitration tray was filled with 100 μL of sterile water containing four times the final drug concentration (16 mg/L amphotericin B).
(§8) b) Columns 2-12 were filled with 50 μL of distilled water
(§9) c) 50 μL amounts were taken from wells in column 1 and diluted two-fold by transferring them to column 2 with a multichannel pipette (±2% coefficient of variation). 50 μL samples were then removed from column 2 and transferred to column 3, and so on through to column 10. The last 50 μL of diluted drug is then discarded. Thus, each well in columns 1-10 will contain 50 μL of water containing four times the final antifungal drug concentrations.
(§10) Stock solutions of CHD-FA were produced containing 4%, 2%, 1%, 0.5% and 0.25% of the native compound.
(§11) 100 μL of the diluted CHD-FA was added to microtitration trays in so that row A contains a final dilution of 2% row B, 1%, row C 0.5%, row D 0.25% row E 0.125% and row F diluent only.
(§12) 50 μL of the diluted spore suspension in 4×RPMI was added to all wells. This produces a well containing 200 μL final volume (made up of 50 μL diluted antifungal, 100 μL diluted CHD-FA or diluent, 50 μL of 4×RPMI containing fungal spores)
(§13) All plates were incubated at 37° C. in air in a darkened incubator.
(§14) Plates were read visually with the endpoint taken as the lowest concentration of drug that inhibited growth by 50% of that of the drug free control.

Aspergillus fumigatus = test: as above; assay type: cell-based; conditions: for MIC: Aspergillus fumigatus
Description: as §1, §2, §3, §4, §5, §6, §7, §8, §9, §10, §11, §12, §13, §14

Aspergillus terreus = test: as above; assay type: cell-based; conditions: for MIC: Aspergillus terreus
Description: as §1, §2, §3, §4, §5, §6, §7, §8, §9, §10, §11, §12, §13, §14

Fusarium solani = test: as above; assay type: cell-based
Description: as §1, §2, §3, §4, §5, §6, §7, §8, §9, §10, §11, §12, §13, §14

Aspergillus flavus = test: as above; assay type: cell-based; conditions: for MIC: Aspergillus flavus
Description: as §1, §2, §3, §4, §5, §6, §7, §8, §9, §10, §11, §12, §13, §14

MIC (Absidia corymbifera; Absidia isolate 1): 0.25 µg/mL (≈ 0.271 µM) | MIC (Absidia corymbifera; Absidia isolate 2): 0.06 µg/mL (≈ 0.0649 µM) | Amphotericin MIC (Aspergillus fumigatus; A. fumigates strain 1, CHD-FA Dilution 0.125): 0.06 µg/mL | Amphotericin MIC (Aspergillus fumigatus; A. fumigates strain 1, CHD-FA Dilution 0.25): No Growth | Amphotericin MIC (Aspergillus fumigatus; A. fumigates strain 1, CHD-FA Dilution 0.5): No Growth | Amphotericin MIC (Aspergillus fumigatus; A. fumigates strain 2, CHD-FA Dilution 0.125): 0.125 µg/mL | Amphotericin MIC (Aspergillus fumigatus; A. fumigates strain 2, CHD-FA Dilution 0.25): No Growth | Amphotericin MIC (Aspergillus fumigatus; A. fumigates strain 2, CHD-FA Dilution 0.5): No Growth | MIC (Aspergillus fumigatus; A. fumigatus isolate 1): 0.5 µg/mL (≈ 0.541 µM) | MIC (Aspergillus fumigatus; A. fumigatus isolate 2): 0.25 µg/mL (≈ 0.271 µM) | Amphotericin MIC (Aspergillus terreus; A. terreus strain 1, CHD-FA Dilution 0.125): 0.25 µg/mL | Amphotericin MIC (Aspergillus terreus; A. terreus strain 1, CHD-FA Dilution 0.25): No Growth | Amphotericin MIC (Aspergillus terreus; A. terreus strain 1, CHD-FA Dilution 0.5): No Growth | Amphotericin MIC (Aspergillus terreus; A. terreus strain 2, CHD-FA Dilution 0.125): 0.125 µg/mL | Amphotericin MIC (Aspergillus terreus; A. terreus strain 2, CHD-FA Dilution 0.25): No Growth | Amphotericin MIC (Aspergillus terreus; A. terreus strain 2, CHD-FA Dilution 0.5): No Growth | MIC (Aspergillus terreus; A. terreus isolate 1): 0.5 µg/mL (≈ 0.541 µM) | MIC (Aspergillus terreus; A. terreus isolate 2): 1 µg/mL (≈ 1.08 µM) | Amphotericin MIC (Fusarium solani; Fusarium isolate 2): 2.0 µg/mL | MIC (Fusarium solani; Fusarium solani, Fusarium isolate 1): 2 µg/mL (≈ 2.16 µM) | Amphotericin MIC (Aspergillus flavus; A. flavus strain 1, CHD-FA Dilution 0.125): > 4 µg/mL | Amphotericin MIC (Aspergillus flavus; A. flavus strain 1, CHD-FA Dilution 0.25): No Growth | Amphotericin MIC (Aspergillus flavus; A. flavus strain 1, CHD-FA Dilution 0.5): No Growth | Amphotericin MIC (Aspergillus flavus; A. flavus strain 2, CHD-FA Dilution 0.125): 0.25 µg/mL | Amphotericin MIC (Aspergillus flavus; A. flavus strain 2, CHD-FA Dilution 0.25): No Growth | Amphotericin MIC (Aspergillus flavus; A. flavus strain 2, CHD-FA Dilution 0.5): No Growth | MIC (Aspergillus flavus; A. flavus isolate 1): 4 µg/mL (≈ 4.33 µM) | MIC (Aspergillus flavus; A. flavus isolate 2): 0.5 µg/mL (≈ 0.541 µM)
SMILES: C[C@@H]1[C@H](O)[C@@H](C)/C=C/C=C/C=C/C=C/C=C/C=C/C=C/[C@H](O[C@@H]2O[C@H](C)[C@@H](O)[C@H](N)[C@@H]2O)C[C@@H]2O[C@](O)(C[C@@H](O)C[C@@H](O)[C@H](O)CC[C@@H](O)C[C@@H](O)CC(=O)O[C@H]1C)C[C@H](O)[C@H]2C(=O)O [Amphotericin B]
dose required to inhibit Aspergillus (Aspergillus): 3 mg/L
